Reference: patent US20230085307A1, “PYRIDAZINONE COMPOUND AND HERBICIDE” (NISSAN CHEMICAL CORPORATION, priority 2019, published 2023)

Key:
barnyard grass [1] = assay: Test Example 4: herbicidal effect by soil treatment (Table 19, symbol H); format: in vivo, barnyard grass (Echinochloa crus-galli); settings: amount of applied herbicide 320 g/ha
Outline: (§1)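 Herbicidal effect was rated 3 weeks after treatment, using the scoring criteria of an earlier test. The compound, formulated as an emulsion and diluted in water to a set herbicide amount, had been sprayed uniformly on soil over freshly sown seeds. Growth took place in a greenhouse at 25° C. to 30° C.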

blackgrass [2] = assay: Test Example 4: herbicidal effect by soil treatment (Table 19, symbol J); format: in vivo, blackgrass (Alopecurus myosuroides); settings: amount of applied herbicide 320 g/ha
Outline: as §1

persian speedwell [3] = assay: Test Example 4: herbicidal effect by soil treatment (Table 19, symbol R); format: in vivo, Persian speedwell (Veronica persica); settings: amount of applied herbicide 320 g/ha
Outline: as §1

Italian ryegrass [4] = assay: Test Example 4: herbicidal effect by soil treatment (Table 19, symbol K); format: in vivo, Italian ryegrass (Lolium multiflorum); settings: amount of applied herbicide 320 g/ha
Outline: as §1

redroot pigweed [5] = assay: Test Example 5: herbicidal effect by foliage application, plastic box (Table 20, symbol N); format: in vivo, redroot pigweed (Amaranthus retroflexus); settings: amount of applied herbicide 320 g/ha; foliage application after 14-day growth; evaluated three weeks after application
Outline: (§2)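 Foliar spray test: emulsion formulation diluted in water to a set application rate, sprayed onto 14-day-old plants raised in diluvial soil at 25° C to 30° C under glass. Both herbicidal effect and crop effect rated visually three weeks later.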

redroot pigweed [6] = assay: Test Example 4: herbicidal effect by soil treatment (Table 19, symbol N); format: in vivo, redroot pigweed (Amaranthus retroflexus); settings: amount of applied herbicide 320 g/ha
Outline: as §1

lambsquarters [7] = assay: Test Example 4: herbicidal effect by soil treatment (Table 19, symbol O); format: in vivo, lambsquarters (Chenopodium album); settings: amount of applied herbicide 320 g/ha
Outline: as §1

windgrass [8] = assay: Test Example 4: herbicidal effect by soil treatment (Table 19, symbol L); format: in vivo, windgrass (Apera spica-venti); settings: amount of applied herbicide 320 g/ha
Outline: as §1

lambsquarters [9] = assay: Test Example 5: herbicidal effect by foliage application, plastic box (Table 20, symbol O); format: in vivo, lambsquarters (Chenopodium album); settings: amount of applied herbicide 320 g/ha; foliage application after 14-day growth; evaluated three weeks after application
Outline: as §2

velvetleaf [10] = assay: Test Example 5: herbicidal effect by foliage application, plastic box (Table 20, symbol M); format: in vivo, velvetleaf (Abutilon theophrasti); settings: amount of applied herbicide 320 g/ha; foliage application after 14-day growth; evaluated three weeks after application
Outline: as §2

Chinese sprangletop = assay: Test Example 3: herbicidal effect by foliage application, Wagner pot (Table 18, symbol D); format: in vivo, chinese sprangletop (Leptochloa chinensis); settings: 320 g/ha
Outline: (§3)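 Plants were sown in alluvial soil held under 0.1–0.5 cm standing water and grown 14 days in a greenhouse at 25–30 °C. An emulsifiable formulation, water-diluted to the set dose, was then sprayed onto the foliage, and effects were scored three weeks later using previously defined criteria.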

green foxtail [11] = assay: Test Example 5: herbicidal effect by foliage application, plastic box (Table 20, symbol G); format: in vivo, green foxtail (Setaria viridis); settings: amount of applied herbicide 320 g/ha; foliage application after 14-day growth; evaluated three weeks after application
Outline: as §2

velvetleaf [12] = assay: Test Example 4: herbicidal effect by soil treatment (Table 19, symbol M); format: in vivo, velvetleaf (Abutilon theophrasti); settings: amount of applied herbicide 320 g/ha
Outline: as §1

wild oat [13] = assay: Test Example 4: herbicidal effect by soil treatment (Table 19, symbol I); format: in vivo, wild oat (Avena fatua); settings: amount of applied herbicide 320 g/ha
Outline: as §1

windgrass [14] = assay: Test Example 5: herbicidal effect by foliage application, plastic box (Table 20, symbol L); format: in vivo, windgrass (Apera spica-venti); settings: amount of applied herbicide 320 g/ha; foliage application after 14-day growth; evaluated three weeks after application
Outline: as §2

chickweed [15] = assay: Test Example 5: herbicidal effect by foliage application, plastic box (Table 20, symbol P); format: in vivo, common chickweed (Stellaria media); settings: amount of applied herbicide 320 g/ha; foliage application after 14-day growth; evaluated three weeks after application
Outline: as §2

barnyard grass [16] = assay: Test Example 3: herbicidal effect by foliage application, Wagner pot (Table 18, symbol H); format: in vivo, barnyard grass (Echinochloa crus-galli); settings: 320 g/ha
Outline: as §3

chickweed [17] = assay: Test Example 4: herbicidal effect by soil treatment (Table 19, symbol P); format: in vivo, common chickweed (Stellaria media); settings: amount of applied herbicide 320 g/ha
Outline: as §1

blackgrass [18] = assay: Test Example 5: herbicidal effect by foliage application, plastic box (Table 20, symbol J); format: in vivo, blackgrass (Alopecurus myosuroides); settings: amount of applied herbicide 320 g/ha; foliage application after 14-day growth; evaluated three weeks after application
Outline: as §2

wild oat [19] = assay: Test Example 5: herbicidal effect by foliage application, plastic box (Table 20, symbol I); format: in vivo, wild oat (Avena fatua); settings: amount of applied herbicide 320 g/ha; foliage application after 14-day growth; evaluated three weeks after application
Outline: as §2

southern crabgrass [20] = assay: Test Example 5: herbicidal effect by foliage application, plastic box (Table 20, symbol F); format: in vivo, southern crabgrass (Digitaria ciliaris); settings: amount of applied herbicide 320 g/ha; foliage application after 14-day growth; evaluated three weeks after application
Outline: as §2

green foxtail [21] = assay: Test Example 4: herbicidal effect by soil treatment (Table 19, symbol G); format: in vivo, green foxtail (Setaria viridis); settings: amount of applied herbicide 320 g/ha
Outline: as §1

rice flat sedge = assay: Test Example 3: herbicidal effect by foliage application, Wagner pot (Table 18, symbol E); format: in vivo, rice flat sedge (Cyperus iria); settings: 320 g/ha
Outline: as §3

southern crabgrass [22] = assay: Test Example 4: herbicidal effect by soil treatment (Table 19, symbol F); format: in vivo, southern crabgrass (Digitaria ciliaris); settings: amount of applied herbicide 320 g/ha
Outline: as §1

barnyard grass [23] = assay: Test Example 5: herbicidal effect by foliage application, plastic box (Table 20, symbol H); format: in vivo, barnyard grass (Echinochloa crus-galli); settings: amount of applied herbicide 320 g/ha; foliage application after 14-day growth; evaluated three weeks after application
Outline: as §2

persian speedwell [24] = assay: Test Example 5: herbicidal effect by foliage application, plastic box (Table 20, symbol R); format: in vivo, Persian speedwell (Veronica persica); settings: amount of applied herbicide 320 g/ha; foliage application after 14-day growth; evaluated three weeks after application
Outline: as §2

Italian ryegrass [25] = assay: Test Example 5: herbicidal effect by foliage application, plastic box (Table 20, symbol K); format: in vivo, Italian ryegrass (Lolium multiflorum); settings: amount of applied herbicide 320 g/ha; foliage application after 14-day growth; evaluated three weeks after application
Outline: as §2

Compound | Herbicidal effect by soil treatment, H: barnyard grass (barnyard grass [1]) | Herbicidal effect by soil treatment, J: blackgrass (blackgrass [2]) | Herbicidal effect by soil treatment, R: persian speedwell (persian speedwell [3]) | Herbicidal effect by soil treatment, K: Italian ryegrass (Italian ryegrass [4]) | Herbicidal effect by foliage application, N: redroot pigweed (redroot pigweed [5]) | Herbicidal effect by soil treatment, N: redroot pigweed (redroot pigweed [6]) | Herbicidal effect by soil treatment, O: lambsquarters (lambsquarters [7]) | Herbicidal effect by soil treatment, L: windgrass (windgrass [8]) | Herbicidal effect by foliage application, O: lambsquarters (lambsquarters [9]) | Herbicidal effect by foliage application, M: velvetleaf (velvetleaf [10]) | herbicidal effect on Chinese sprangletop (D) (Chinese sprangletop) | Herbicidal effect by foliage application, G: green foxtail (green foxtail [11]) | Herbicidal effect by soil treatment, M: velvetleaf (velvetleaf [12]) | Herbicidal effect by soil treatment, I: wild oat (wild oat [13]) | Herbicidal effect by foliage application, L: windgrass (windgrass [14]) | Herbicidal effect by foliage application, P: chickweed (chickweed [15]) | herbicidal effect on barnyard grass (H) (barnyard grass [16]) | Herbicidal effect by soil treatment, P: chickweed (chickweed [17]) | Herbicidal effect by foliage application, J: blackgrass (blackgrass [18]) | Herbicidal effect by foliage application, I: wild oat (wild oat [19]) | other results
Cc1nn(C)c(=O)c(-c2c(-c3ccc(OC(F)(F)F)cc3)sc3c(Cl)cccc23)c1O [4-078] | 0 (Herbicidal rate of 5% or less (almost no effect)) | 0 (Herbicidal rate of 5% or less (almost no effect)) | 4 (Herbicidal rate of 70% or more and less than 90%) | 0 (Herbicidal rate of 5% or less (almost no effect)) | 5 (Herbicidal rate of 90% or more (almost completely withered)) | 2 (Herbicidal rate of 20% or more and less than 40%) | 0 (Herbicidal rate of 5% or less (almost no effect)) | 0 (Herbicidal rate of 5% or less (almost no effect)) | 3 (Herbicidal rate of 40% or more and less than 70%) | 3 (Herbicidal rate of 40% or more and less than 70%) | 2 (Herbicidal rate of 20% or more and less than 40%) | 0 (Herbicidal rate of 5% or less (almost no effect)) | 0 (Herbicidal rate of 5% or less (almost no effect)) | 0 (Herbicidal rate of 5% or less (almost no effect)) | 5 (Herbicidal rate of 90% or more (almost completely withered)) | 5 (Herbicidal rate of 90% or more (almost completely withered)) | 3 (Herbicidal rate of 40% or more and less than 70%) | 3 (Herbicidal rate of 40% or more and less than 70%) | 0 (Herbicidal rate of 5% or less (almost no effect)) | 0 (Herbicidal rate of 5% or less (almost no effect)) | Herbicidal effect by foliage application, F: southern crabgrass (southern crabgrass [20]): 0 (Herbicidal rate of 5% or less (almost no effect)); Herbicidal effect by soil treatment, G: green foxtail (green foxtail [21]): 0 (Herbicidal rate of 5% or less (almost no effect)); herbicidal effect on rice flat sedge (E) (rice flat sedge): 3 (Herbicidal rate of 40% or more and less than 70%); Herbicidal effect by soil treatment, F: southern crabgrass (southern crabgrass [22]): 0 (Herbicidal rate of 5% or less (almost no effect)); Herbicidal effect by foliage application, H: barnyard grass (barnyard grass [23]): 0 (Herbicidal rate of 5% or less (almost no effect)); Herbicidal effect by foliage application, R: persian speedwell (persian speedwell [24]): 5 (Herbicidal rate of 90% or more (almost completely withered)); Herbicidal effect by foliage application, K: Italian ryegrass (Italian ryegrass [25]): 0 (Herbicidal rate of 5% or less (almost no effect))
Cc1nn(C)c(=O)c(-c2c(-c3ccc(SC(C)C)cc3)sc3c(Cl)cccc23)c1O [4-096] | 0 (Herbicidal rate of 5% or less (almost no effect)) | 0 (Herbicidal rate of 5% or less (almost no effect)) | 4 (Herbicidal rate of 70% or more and less than 90%) | 0 (Herbicidal rate of 5% or less (almost no effect)) | 5 (Herbicidal rate of 90% or more (almost completely withered)) | 5 (Herbicidal rate of 90% or more (almost completely withered)) | 3 (Herbicidal rate of 40% or more and less than 70%) | 0 (Herbicidal rate of 5% or less (almost no effect)) | 4 (Herbicidal rate of 70% or more and less than 90%) | 3 (Herbicidal rate of 40% or more and less than 70%) | 3 (Herbicidal rate of 40% or more and less than 70%) | 3 (Herbicidal rate of 40% or more and less than 70%) | 0 (Herbicidal rate of 5% or less (almost no effect)) | 0 (Herbicidal rate of 5% or less (almost no effect)) | 3 (Herbicidal rate of 40% or more and less than 70%) | 5 (Herbicidal rate of 90% or more (almost completely withered)) | 5 (Herbicidal rate of 90% or more (almost completely withered)) | 3 (Herbicidal rate of 40% or more and less than 70%) | 3 (Herbicidal rate of 40% or more and less than 70%) | 2 (Herbicidal rate of 20% or more and less than 40%) | Herbicidal effect by foliage application, F: southern crabgrass (southern crabgrass [20]): 0 (Herbicidal rate of 5% or less (almost no effect)); Herbicidal effect by soil treatment, G: green foxtail (green foxtail [21]): 0 (Herbicidal rate of 5% or less (almost no effect)); herbicidal effect on rice flat sedge (E) (rice flat sedge): 3 (Herbicidal rate of 40% or more and less than 70%); Herbicidal effect by soil treatment, F: southern crabgrass (southern crabgrass [22]): 0 (Herbicidal rate of 5% or less (almost no effect)); Herbicidal effect by foliage application, H: barnyard grass (barnyard grass [23]): 4 (Herbicidal rate of 70% or more and less than 90%); Herbicidal effect by foliage application, R: persian speedwell (persian speedwell [24]): 5 (Herbicidal rate of 90% or more (almost completely withered)); Herbicidal effect by foliage application, K: Italian ryegrass (Italian ryegrass [25]): 4 (Herbicidal rate of 70% or more and less than 90%)
